Patent US8183262B2, “Pyridine derivatives as mGluR2 antagonists” (Hoffmann-La Roche Inc., priority 2007, dated 2012)
pKi: −log10 of the molar value.

Tests used:
[1] = molecular target: T1, rat mGlu2 receptor (Rattus norvegicus, UniProt P31421); test: [3H]-LY354740 binding on mGlu2 transfected CHO cell membranes; conditions: inhibition of 10 nM [3H]-LY354740 binding, membranes of CHO cells transfected with rat mGlu2, room temperature, 1 hour
T1 construct: expressed in transfected cells; membranes prepared
T1 sequence (P31421 19-872): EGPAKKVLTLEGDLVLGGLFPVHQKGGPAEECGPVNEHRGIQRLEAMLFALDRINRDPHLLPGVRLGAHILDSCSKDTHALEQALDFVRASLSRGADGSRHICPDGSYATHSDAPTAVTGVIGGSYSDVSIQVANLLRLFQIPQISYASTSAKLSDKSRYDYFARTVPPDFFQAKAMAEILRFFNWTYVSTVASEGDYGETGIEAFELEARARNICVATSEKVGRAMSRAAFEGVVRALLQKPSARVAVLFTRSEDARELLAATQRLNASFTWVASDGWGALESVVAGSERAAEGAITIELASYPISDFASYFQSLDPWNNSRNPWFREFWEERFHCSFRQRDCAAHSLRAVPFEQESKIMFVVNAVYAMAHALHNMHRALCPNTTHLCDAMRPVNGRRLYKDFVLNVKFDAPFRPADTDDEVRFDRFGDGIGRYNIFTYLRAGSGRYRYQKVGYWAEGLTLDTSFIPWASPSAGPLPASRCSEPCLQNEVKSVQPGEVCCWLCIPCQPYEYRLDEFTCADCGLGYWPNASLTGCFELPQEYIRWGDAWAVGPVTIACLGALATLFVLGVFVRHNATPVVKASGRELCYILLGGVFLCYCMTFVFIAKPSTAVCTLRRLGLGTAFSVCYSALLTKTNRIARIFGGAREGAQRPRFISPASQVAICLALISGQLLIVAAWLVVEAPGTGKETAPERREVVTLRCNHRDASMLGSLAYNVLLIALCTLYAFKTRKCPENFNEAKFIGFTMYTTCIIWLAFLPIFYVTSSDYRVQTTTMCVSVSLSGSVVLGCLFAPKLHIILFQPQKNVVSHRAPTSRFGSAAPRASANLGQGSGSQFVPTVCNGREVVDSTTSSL
Procedure, shortened: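 Membranes from CHO cells stably expressing rat mGlu2 (25 μg protein/ml) incubated 1 hour at room temperature with 10 nM [3H]-LY354740 and test compound in 50 mM Tris-HCl, 2 mM MgCl2, pH 7.4. Non-specific binding defined with 10 μM DCG IV; bound radioactivity counted after filtration. IC50 from four-parameter logistic fit.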

## O=S(=O)(c1cccc(-c2cc(-c3nc(-c4ccc(C(F)(F)F)cc4)cc(C(F)(F)F)n3)ccn2)c1)N1CCOCC1 [Example 377, 4-(3-{4-[4-Trifluoromethyl-6-(4-trifluoromethyl-phenyl)-pyrimidin-2-yl]-pyridin-2-yl}-benzenesulfonyl)-morpholine]
[1]
  pKi: 8.15
other
  melting point: 202 °C

## Cc1cc(-c2ccc(C(F)(F)F)cc2)cc(-c2cccc(-c3ccc(S(N)(=O)=O)s3)c2)n1 [Example 271, 5-{3-[6-Methyl-4-(4-trifluoromethyl-phenyl)-pyridin-2-yl]-phenyl}-thiophene-2-sulfonic acid amide]
[1]
  pKi: 8.52
other
  melting point: 215 °C

## Cc1cc(-c2ccc(C(F)(F)F)cc2)cc(-c2cccc(-c3cccc(S(C)(=O)=O)c3)n2)n1 [Example 356, 6′-(3-Methanesulfonyl-phenyl)-6-methyl-4-(4-trifluoromethyl-phenyl)-[2,2′]bipyridinyl]
[1]
  pKi: 9.00
other
  melting point: 186 °C

## FC(F)(F)c1ccc(-c2cc(C(F)(F)F)nc(-c3cccc(-c4cccnc4)c3)n2)cc1 [Example 33, 2-(3-Pyridin-3-yl-phenyl)-4-trifluoromethyl-6-(4-trifluoromethyl-phenyl)-pyrimidine]
[1]
  pKi: 7.77
other
  melting point: 194 °C

## Cc1cc(-c2ccc(C(F)(F)F)cc2)nc(-c2ccnc(-c3ccc(S(=O)(=O)NC(C)(C)C)s3)c2)c1 [Example 320, 5-[4-Methyl-6-(4-trifluoromethyl-phenyl)-[2,4′]bipyridinyl-2′-yl]-thiophene-2-sulfonic acid tert-butylamide]
[1]
  pKi: 7.80
other
  melting point: 209 °C

## CCOc1cc(-c2cc(C(F)(F)F)nc(-c3nc(-c4ccc(N)nc4)no3)n2)ccc1C(F)(F)F [Example 90, 5-{5-[4-(3-Ethoxy-4-trifluoromethyl-phenyl)-6-trifluoromethyl-pyrimidin-2-yl]-[1,2,4]oxadiazol-3-yl}-pyridin-2-ylamine]
[1]
  pKi: 7.26
other
  melting point: 216 °C

## Cc1nc(-c2cn(-c3cc(C(F)(F)F)cc(-c4ccc(C(F)(F)F)cc4)n3)cn2)sc1S(N)(=O)=O [Example 294, 4-Methyl-2-{1-[4-trifluoromethyl-6-(4-trifluoromethyl-phenyl)-pyridin-2-yl]-1H-imidazol-4-yl}-thiazole-5-sulfonic acid amide]
[1]
  pKi: 7.89
other
  melting point: 187 °C (dec.)

## CC(C)(C)NS(=O)(=O)c1cccc(-c2cccc(-c3nc(-c4ccc(C(F)(F)F)cc4)cc(C(F)(F)F)n3)c2)c1 [Example 155, 3′-[4-Trifluoromethyl-6-(4-trifluoromethyl-phenyl)-pyrimidin-2-yl]-biphenyl-3-sulfonic acid tert-butylamide]
[1]
  pKi: 8.08
other
  melting point: 200 °C

## Cc1cc(-c2ccc(C(F)(F)F)cc2)cc(-c2nc(-c3cccc(S(N)(=O)=O)c3)no2)n1 [Example 237, 3-{5-[6-Methyl-4-(4-trifluoromethyl-phenyl)-pyridin-2-yl]-[1,2,4]oxadiazol-3-yl}-benzenesulfonamide]
[1]
  pKi: 8.40
other
  melting point: 277 °C

## Cc1cc(-c2ccc(C(F)(F)F)cc2)cc(-c2cccc(-c3ccc(N)nc3)n2)n1 [Example 71, 6-Methyl-4-(4-trifluoromethyl-phenyl)-[2,2′;6′,3″]terpyridin-6″-ylamine]
[1]
  pKi: 9.00
other
  melting point: 208 to 211 °C

## Cc1cc(-c2ccc(C(F)(F)F)cc2)cc(-c2cccc(-c3cc(S(N)(=O)=O)c(F)cc3F)c2)n1 [Example 270, 4,6-Difluoro-3′-[6-methyl-4-(4-trifluoromethyl-phenyl)-pyridin-2-yl]-biphenyl-3-sulfonic acid amide]
[1]
  pKi: 8.22
other
  melting point: 227 °C

## Cc1cc(-c2ccc(C(F)(F)F)cc2)nc(-c2cccc(-c3cccc(S(N)(=O)=O)c3)c2)c1 [Example 274, 3′-[4-Methyl-6-(4-trifluoromethyl-phenyl)-pyridin-2-yl]-biphenyl-3-sulfonic acid amide]
[1]
  pKi: 8.40
other
  melting point: 200 °C

## NS(=O)(=O)c1cccc(-c2cccc(-c3nc(-c4ccc(F)cc4)cc(C(F)(F)F)n3)c2)c1 [Example 394, 3′-[4-(4-Fluoro-phenyl)-6-trifluoromethyl-pyrimidin-2-yl]-biphenyl-3-sulfonic acid amide]
[1]
  pKi: 8.52
other
  melting point: 208 °C

## FC(F)(F)c1ccc(-c2cc(C(F)(F)F)nc(-c3ccncc3)n2)cc1 [Example 39, 2-Pyridin-4-yl-4-trifluoromethyl-6-(4-trifluoromethyl-phenyl)-pyrimidine]
[1]
  pKi: 7.40
other
  melting point: 153.5 °C

## CN(C)S(=O)(=O)Nc1cccc(-c2cccc(-c3nc(-c4ccc(C(F)(F)F)cc4)cc(C(F)(F)F)n3)c2)c1 [Example 222, N-{3′-[4-Trifluoromethyl-6-(4-trifluoromethyl-phenyl)-pyrimidin-2-yl]-biphenyl-3-yl}-N′,N′-dimethyl-sulfamide]
[1]
  pKi: 7.91
other
  melting point: 113 °C

## Nc1ccc(-c2cccc(-c3nc(-c4ccc(C(F)(F)F)cc4)cc(C(F)(F)F)n3)c2)cn1 [Example 26, 5-{3-[4-Trifluoromethyl-6-(4-trifluoromethyl-phenyl)-pyrimidin-2-yl]-phenyl}-pyridin-2-ylamine]
[1]
  pKi: 7.85
other
  melting point: 205 °C

## Cc1cc(-c2ccc(C(F)(F)F)cc2)cc(-c2cccc(-c3cccc(S(C)(=O)=O)c3)c2)n1 [Example 353, 2-(3′-Methanesulfonyl-biphenyl-3-yl)-6-methyl-4-(4-trifluoromethyl-phenyl)-pyridine]
[1]
  pKi: 8.52
other
  melting point: 110 °C (dec.)

## Cc1cc(-c2ccc(C(F)(F)F)cc2)cc(-c2cccc(-c3cccnc3)c2)n1 [Example 61, 2-Methyl-6-(3-pyridin-3-yl-phenyl)-4-(4-trifluoromethyl-phenyl)-pyridine]
[1]
  pKi: 7.89
other
  melting point: 89 to 106 °C

## Cc1cc(-c2ccc(C(F)(F)F)cc2)cc(-c2ccnc(-c3cccc([N+](=O)[O-])c3)c2)n1 [Example 306, 6-Methyl-2′-(3-nitro-phenyl)-4-(4-trifluoromethyl-phenyl)-[2,4′]bipyridinyl]
[1]
  pKi: 7.42
other
  melting point: 164 °C

## Nc1ccc(-c2noc(-c3nc(-c4ccc(C(F)(F)F)cc4)cc(C(F)(F)F)n3)n2)cn1 [Example 11, 5-{5-[4-Trifluoromethyl-6-(4-trifluoromethyl-phenyl)-pyrimidin-2-yl]-[1,2,4]oxadiazol-3-yl}-pyridin-2-ylamine]
[1]
  pKi: 7.67
other
  melting point: 218.5 °C

## NS(=O)(=O)c1cccc(-c2nc(-c3nc(-c4ccc(C(F)(F)F)cc4)cc(C(F)(F)F)n3)no2)c1 [Example 10, 3-{3-[4-Trifluoromethyl-6-(4-trifluoromethyl-phenyl)-pyrimidin-2-yl]-[1,2,4]oxadiazol-5-yl}-benzenesulfonamide]
[1]
  pKi: 7.60
other
  melting point: 205 °C

## NS(=O)(=O)c1cnc(-c2cn(-c3cc(-c4ccc(C(F)(F)F)cc4)cc(C(F)(F)F)n3)cn2)s1 [Example 313, 2-{1-[6-Trifluoromethyl-4-(4-trifluoromethyl-phenyl)-pyridin-2-yl]-1H-imidazol-4-yl}-thiazole-5-sulfonic acid amide]
[1]
  pKi: 7.74
other
  melting point: > 250 °C

## Nc1ncc(-c2cccc(-c3nc(-c4ccc(C(F)(F)F)c(OCC(F)(F)F)c4)cc(C(F)(F)F)n3)c2)cn1 [Example 138, 5-(3-{4-[3-(2,2,2-Trifluoro-ethoxy)-4-trifluoromethyl-phenyl]-6-trifluoromethyl-pyrimidin-2-yl}-phenyl)-pyrimidin-2-ylamine]
[1]
  pKi: 7.55
other
  melting point: 250 °C

## Cc1cc(-c2ccc(Cl)c(Cl)c2)cc(-c2cccc(-c3ccc(N)nc3)c2)n1 [Example 249, 5-{3-[4-(3,4-Dichloro-phenyl)-6-methyl-pyridin-2-yl]-phenyl}-pyridin-2-ylamine]
[1]
  pKi: 8.05
other
  melting point: 99 °C (dec.)

## CS(=O)(=O)c1cccc(-c2cc(-c3nc(-c4ccc(C(F)(F)F)cc4)cc(C(F)(F)F)n3)ccn2)c1 [Example 218, 2-[2-(3-Methanesulfonyl-phenyl)-pyridin-4-yl]-4-trifluoromethyl-6-(4-trifluoromethyl-phenyl)-pyrimidine]
[1]
  pKi: 8.52
other
  melting point: 238.5 °C

## Cc1cn(-c2cccc(-c3cc(-c4ccc(C(F)(F)F)cc4)cc(C)n3)c2)cn1 [Example 227, 2-Methyl-6-[3-(4-methyl-imidazol-1-yl)-phenyl]-4-(4-trifluoromethyl-phenyl)-pyridine]
[1]
  pKi: 7.47
other
  melting point: 126 to 132 °C

## Cc1cc(-c2ccc(C(F)(F)F)cc2)cc(-c2cccc(-c3cnc(N)nc3)c2)n1 [Example 70, 5-{3-[6-Methyl-4-(4-trifluoromethyl-phenyl)-pyridin-2-yl]-phenyl}-pyrimidin-2-ylamine]
[1]
  pKi: 7.36
other
  melting point: 215 to 217 °C

## CCOc1cc(-c2cc(C(F)(F)F)nc(-c3ccnc(-c4cccc(S(N)(=O)=O)c4)c3)n2)ccc1C(F)(F)F [Example 452, 3-{4-[4-(3-Ethoxy-4-trifluoromethyl-phenyl)-6-trifluoromethyl-pyrimidin-2-yl]-pyridin-2-yl}-benzenesulfonamide]
[1]
  pKi: 7.80
other
  melting point: 223.5 °C

## Cc1cc(-c2ccc(C(F)(F)F)cc2)cc(-n2ccnc2)n1 [Example 55, 2-Imidazol-1-yl-6-methyl-4-(4-trifluoromethyl-phenyl)-pyridine]
[1]
  pKi: 7.02
other
  melting point: 158 to 160 °C

## FC(F)(F)c1cc(-c2ccc(Cl)cc2)nc(-c2cccc(-c3cccnc3)c2)n1 [Example 34, 4-(4-Chloro-phenyl)-2-(3-pyridin-3-yl-phenyl)-6-trifluoromethyl-pyrimidine]
[1]
  pKi: 7.33
other
  melting point: 162 °C

## FC(F)(F)c1ccc(-c2cc(C(F)(F)F)nc(-n3cnc(-c4cccnc4)c3)n2)cc1 [Example 5, 2-(4-Pyridin-3-yl-imidazol-1-yl)-4-trifluoromethyl-6-(4-trifluoromethyl-phenyl)-pyrimidine]
[1]
  pKi: 7.33
other
  melting point: 200.5 °C
